The test system of data set [1] is PPARγ and a target protein Fabp4. Briefly: Expression of PPARγ and Fabp4 in lymphedema tissue (western blot, mRNA). Format: in vivo. Particulars: mouse.
Data set [2] relates to LPS-induced TNFα production in mouse peritoneal macrophages. Description: LPS-induced TNFα production in mouse peritoneal macrophages (ELISA). The note with it: Mus musculus, Peritoneal macrophage, 24 h, mouse peritoneal macrophages, 100 ng/ml LPS 24 h; measured twice, mean ± standard deviation; read-out: IC50, dose-dependent inhibition of TNFα production in macrophages. Format: cell-based. The procedure:
To isolate peritoneal macrophages, male Balb/c mice were intraperitoneally injected with 2 ml of 3.5% sterile thioglycolate (B D, Sparks, Md., USA) 4 days before being sacrificed. Mice were sacrificed by cervical dislocation, and peritoneal secretory cells were aseptically isolated through peritoneal washing with cold DMEM (HyClone, Logan, Utah, USA) containing 10% FBS (fetal bovine serum; HyClone) and 1% penicillin-streptomycin. After centrifugation, cells were resuspended and counted using a TC20 Cell Counter (Bio-Rad Laboratories, Hercules, Calif., USA). Peritoneal secretory cells were left in a 24-well plate overnight at 37° C., and non-adherent cells were removed. The cells were then stimulated with 100 ng/ml lipopolysaccharide (LPS) for 24 hours. The supernatant was collected during cytokine analysis, and the level of TNFα in the supernatant was measured using BD OptEIA mouse ELISA sets (BD Biosciences, San Diego, Calif., USA) according to the manufacturer's protocol. […] IC50 (μM) values were measured twice, respectively, and expressed as mean±standard deviation.

A further data set has as its system TNFα. Briefly: mRNA expression of TNFα in lymphedema tissue. The class given is in vivo. Particulars: 7th day after surgery, mouse. An excerpt:
As a result, it was confirmed that the expression level of TNFα mRNA was decreased in the compound 1 treatment group and the compound 14a treatment group (with respect to the control group, *: P<0.05; with respect to compound 1, #: P<0.05).

Data set [3] in a line: Physicochemical properties (pKa, logP, solubility). An excerpt: Compound 1 is butein and the therapeutic effect on lymphedema thereof is disclosed in Korean Patent Publication No. 10-1533197 (published on Jul. 2, 2015).
The next data set deals with lymphedema tissue. Description: Histological (H&E) analysis of lymphedema tissue of the right hind leg. Particulars: 7th day after surgery, right hind leg of mouse. Format: in vivo. An excerpt: (§1) Tissue samples were collected on the 7th day after surgery to induce lymphedema at a location 15 mm-25 mm from the right leg of the mouse. The harvested tissue samples were fixed with 10% formalin solution, and the specimens were cut to a thickness of 5 μm. Sections were deparaffinized in 100% xylene, rehydrated with a series of 100% ethanol, 95% ethanol, 90% ethanol, 80% ethanol, and 70% ethanol, and washed with water. Sections were reacted with hematoxylin solution at room temperature. After washing in PBS, sections were stained with eosin at room temperature. Images were acquired by a Pannoramic viewer microscope (3[…] Ltd., Hungary). Prepared slides were incubated using anti-mouse PPARγ (Santa Cruz Biotechnology, USA) and Alexa Fluor 488 and DAPI (Life Technologies, USA). Samples were analyzed using a Nikon ECLIPSE 80i microscope (Nikon Instruments Inc., Japan).
In FIG. 3A, the scale bar of the upper panel is 500 μm, and the scale bar of the lower panel is 100 μm.
In FIG. 4A, the scale bar of the upper panel is 200 μm, and the scale bar of the lower panel is 100 μm.

For another data set, the system named is PPARγ. Briefly: Immunofluorescence staining of PPARγ in epidermal layer of lymphedema tissue. Format: in vivo. The note with it: mouse.
Excerpt: as §1
In addition, peroxisome […] (PPARγ) is a major regulator of lipogenesis, and as shown in FIG. 4B showing the results of immunofluorescence staining, the distribution of PPARγ in the epidermal layer of lymphedema tissue after treatment with compound 1 and compound 14a was suppressed.

Data set [4] has as its system lymphedema induced in mice. Description: Prophylactic effect on lymphedema formation, surgically induced murine lymphedema model (volume). Format: in vivo, mouse. The note with it: 7th day after surgery, oral administration 7 days before surgery, then once every two days, vs control group. As to the method: All animal tests in the following examples were performed after obtaining approvals by the Institutional Animal Care and Use Committee (IACUC) of Sungkyunkwan University School of Medicine (Approval No.: […]-20150037). All methods were performed according to the approved guidelines. […] Briefly, major lymphatic sites including inguinal lymph nodes, popliteal lymph nodes, deep inguinal lymph nodes and femoral lymphatic vessels were removed, and the lower right leg of the mouse was limitedly cauterized under anesthesia.
Compounds 1, 7m, and 14a were each orally administered to mice for 7 days before surgical induction of lymphedema in mice.
On the other hand, in the control group, the compound 1 treatment group, the compound 7m treatment group, and the compound 14a treatment group, lymphedema was induced through surgery. After surgery, the compounds were administered once every two days.
The volume of lymphedema was measured on the 7th day after surgery, and the size of the lymphedema was recorded using a caliper ruler by a person who was blinded to the treatment status of the mice.

Data set [5] in a line: Pharmacokinetic analysis in mice after I.V. and oral administration. Format: in vivo, mouse. Particulars: male CD-1 mice; for Cmax: read-out: Cmax (maximum plasma concentration). The procedure: Compounds were administered to 5-week-old male CD-1 mice through 1 mg/kg tail vein administration (administration volume of 5 mL/kg), 20 mg/kg oral administration, and 100 mg/kg oral administration, respectively. Three mice were used for each independent experiment. Blood samples were taken in an amount of 20 μL to 30 μL via the saphenous vein at 5, 15, 30, 60, 120, 180, 360, and 1440 minutes.
In addition, pharmacokinetic parameters were calculated from non-compartmental analysis using Win Non-lin.
In Table 3, T1/2 denotes the terminal half-life, Cmax denotes the maximum plasma concentration, AUC-O denotes the area under the plasma concentration-time curve from time zero to infinity, and indicates exposure concentration of whole blood, and BA represents bioavailability expressed as (AUCpo/AUCiv)×100. […] Cmax and AUC∞ are mean±SD values obtained from three male ICR mice. Regarding blood exposure during systemic circulation of the compound, the compound was orally administered at an amount of 100 mg/kg, and then, AUC (area under the curve) was measured, and the obtained measurements were compared.

The mark [6] stands for this setting: mouse, plasma, iv, I.V, 1 mg/Kg.
[7] abbreviates: mouse, plasma, po, P.O, 20 mg/Kg.

Structures are written as SMILES. In brackets after ≈: the same amount, converted by molar mass. Read-outs that look alike come from different tables or passages of the source.

With `O=C(Oc1cc(O)ccc1C(=O)/C=C/c1ccc(O)c(O)c1)c1ccccc1` [compound 14a, (E)-2-(3-(3,4-dihydroxyphenyl)acryloyl)-5-hydroxyphenyl benzoate], the melting point stood at 204.9 °C. Moreover, in [1] (lymphedema tissue), the “levels of PPARγ and Fabp4 mRNA (FIG. 4D)” value was “more significant efficacy even compared to compound 1”. For the same molecule, in data set [1], the “expression of PPARγ and Fabp4 in lymphedema tissue (western blot, FIG. 4C)” value is recorded as “reduced the expression of PPARγ”. Further, in data set [2], the IC50 was determined as 14.6 ± 1.56 µM. The “expression level of TNFα mRNA in lymphedema tissue (FIG. 3B)” value in the data set on TNFα is “decreased”. Moreover, in data set [3], the “logP (partition coefficient)” value is recorded as 3.47. In addition, the solubility in data set [3] (water solubility, read-out: Solubility) amounted to 136 µg/mL (≈ 361 µM). For the same molecule, in the data set with lymphedema tissue, the “development of adipose tissue in the epidermal layer (H&E, FIG. 4A)” value is recorded as “inhibiting the development of adipose tissue in the epidermal layer”; the “neutrophil infiltration and epidermal layer of lymphedema tissue (H&E, FIG. 3A)” value was “decreased neutrophil infiltration and ameliorated the epidermal layer of lymphedema tissue”. Also, in the data set on PPARγ, the “distribution of PPARγ in the epidermal layer of lymphedema tissue (FIG. 4B)” value was “suppressed”. Further, in data set [4], the “volume of lymphedema reduced by” value is recorded as 70%. In addition, in data set [5] (I.V, 1 mg/Kg), the “T1/2 (terminal half-life)” value came out at 81.6 min and the Tmax was 12 min. Also, in data set [5] (P.O, 20 mg/Kg), the “T1/2 (terminal half-life)” value came to 34.2 min and the Tmax is 24 min. In addition, in data set [5] (P.O, 100 mg/Kg), the “Cmax (maximum plasma concentration)” value is on record as 1600 ng/mL, the “T1/2 (terminal half-life)” value was found to be 21 min and the Tmax turned out to be 24 min. Further, the “BA (bioavailability)” value in data set [5] (P.O, 100 mg/Kg, (AUCpo/AUCiv)×100) was found to be 7.5%. Further, in data set [5] (setting [6]), the AUC(0-inf) is 163 ng·h/mL and the Cmax was found to be 110 ng/mL. In [5] (setting [7]), the AUC(0-inf) came out at 141 ng·h/mL and the Cmax turned out to be 83 ng/mL. The bioavailability in [5] (mouse, plasma, po, P.O, 20 mg/Kg, (AUCpo/AUCiv)×100, read-out: BA (bioavailability)) turned out to be 4%.

These data come from patent US20230099567A1, “COMPOSITION FOR TREATMENT, PREVENTION, OR AMELIORATION OF LYMPHEDEMA” (RAPPELER CO., LTD., priority 2020, published 2023).
